System: Trichophyton rubrum (ATCC-28188)
Assay: Checkerboard assay of fatty acid/ester with antifungals on Trichophyton rubrum (ATCC 28188)
Type: cell-based
Set-up: key to FIC index: FIC index = sum of FICs; FIC = agent conc in well / agent MIC
Conditions: for MIC: Trichophyton rubrum, ATCC28188, agent alone; for Agent MIC: agent alone
Procedure: The synergy is measured by determining the fractional inhibitory concentration (FIC) value of the combination. This experimental set up, called checkerboard method, allows measurement of a desired effect (inhibition of fungal growth in this case) at different combinations of various concentrations of the two agents (antifungal agent and fatty acid/ester). […] No agent is added to the penultimate column on the right and the bottom row. The final column on the right is used for growth control (only inoculum in broth) and sterility control (broth alone, no inoculum). […] FIC value for each agent in a particular well of the checkerboard layout was calculated by dividing the agent concentration in that well by the established MIC value of the agent against the test organism (Hsieh et al., Synergy assessed by checkerboard: A critical Analysis, Diagn. Microbiol. Infect Dis. (1993) 16:343-349). FIC values for both agents in a particular well were calculated in this way followed by determination of the FIC index (sum of the FICs of each drug in the concerned well). […] Agents Chemother. (2010) 54(2): 602-609].
Using the checkerboard layout experimental setup described above (FIG. 1A), various medium-chain fatty acids were tested for their ability to potentiate the activity of a known antifungal agent. Concentrations above and below the MIC of each test agent were tested using serial dilution. The same procedure was expanded to test combinations of various medium-chain fatty acids C-1 to C-14 (such caprylic acid, undecylenic acid and lauric acid) and esters thereof, with antifungal agents from various classes including azoles, allylamines, benzylamines, zinc pyrithione and piroctone olamine against both susceptible and resistant Trichophyton spp. (filamentous fungus) and Candida spp. (yeast).
Potentiation of the activity of antimycotic agents using ester derivatives of medium chain fatty acids was tested in a standard, well accepted in vitro assay system to check for synergy. This experimental set up, called checkerboard method, allows measurement of a desired effect (inhibition of fungal growth in this case) at different combinations of various concentrations of two agents. A chosen medium chain fatty acid (C-1 to C-14) or its ester derivative was tested for its ability to potentiate the activity of a known antifungal agent (various classes) using the checkerboard layout. Various concentrations above and below the MIC of each test agent were tested using serial dilution in Sabouraud dextrose broth. […] FIC value for a drug in a particular well of the checkerboard layout is calculated by dividing the drug concentration in that well by the established MIC value of the drug against the test organism (Hsieh et al., Synergy assessed by checkerboard: A critical Analysis, Diagn. Microbiol. Infect Dis. (1993) 16:343-349). FIC values for both test agents in a particular well are calculated in this way followed by determination of the FIC index (sum of the FICs of each drug in the concerned well).

[1] = Table 2, propylene glycol monocaprylate series
[2] = Table 3, glyceryl monocaprylate series
[3] = Table 4, undecylenic acid (C11) series
[4] = Table 6, propylene glycol monolaurate series
[5] = agent's MIC in combination antifungal + caprylic acid (partner: other agent of same combination no.)
[6] = agent's MIC in combination antifungal + glyceryl monocaprylate (partner: other agent of same combination no.)
[7] = agent's MIC in combination antifungal + propylene glycol monocaprylate (partner: other agent of same combination no.)
[8] = agent's MIC in combination antifungal + propylene glycol monolaurate (partner: other agent of same combination no.)
[9] = agent's MIC in combination antifungal + undecylenic acid (partner: other agent of same combination no.)
[10] = antifungal in combination with caprylic acid
[11] = antifungal in combination with glyceryl monocaprylate
[12] = antifungal in combination with propylene glycol monocaprylate
[13] = antifungal in combination with propylene glycol monolaurate
[14] = antifungal in combination with undecylenic acid
[15] = combination antifungal + caprylic acid
[16] = combination antifungal + glyceryl monocaprylate
[17] = combination antifungal + propylene glycol monocaprylate
[18] = combination antifungal + propylene glycol monolaurate
[19] = combination antifungal + undecylenic acid
[20] = antifungal in combination with lauric acid

CC[C@H](C)C[C@H](C)CCCCCCCCC(=O)N[C@H]1C[C@@H](O)[C@@H](NCCN)NC(=O)[C@@H]2[C@@H](O)CCN2C(=O)[C@H]([C@H](O)CCN)NC(=O)[C@H]([C@H](O)[C@@H](O)c2ccc(O)cc2)NC(=O)[C@@H]2C[C@@H](O)CN2C(=O)[C@H]([C@@H](C)O)NC1=O [Caspofungin]
MIC (Table 1, caprylic acid series): 64 mg/L | MIC [1]: 64 mg/L | MIC [2]: 64 mg/L | MIC [3]: 64 mg/L | MIC [4]: 64 mg/L | Combination MIC [5]: 16 mg/L | Combination MIC [6]: 2 mg/L | Combination MIC [7]: 0.125 mg/L | Combination MIC [8]: 0.125 mg/L | Combination MIC [9]: 16 mg/L | FIC index [10]: 0.75 | Interaction [10]: Synergistic (Combinations that gave FIC indices less than 1 were designated “synergistic”) | FIC index [11]: 0.531 | Interaction [11]: Synergistic (Combinations that gave FIC indices less than 1 were designated “synergistic”) | FIC index [12]: 0.252 | Interaction [12]: Synergistic (Combinations that gave FIC indices less than 1 were designated “synergistic”) | FIC index [13]: 0.502 | Interaction [13]: Synergistic (Combinations that gave FIC indices less than 1 were designated “synergistic”) | FIC index [14]: 0.5 | Interaction [14]: Synergistic (Combinations that gave FIC indices less than 1 were designated “synergistic”) | FIC [15]: 0.25 | FIC [16]: 0.031 | FIC [17]: 0.002 | FIC [18]: 0.002 | FIC [19]: 0.25

Cc1cc(C2CCCCC2)n(O)c(=O)c1 [Ciclopirox]
MIC (Table 1, caprylic acid series): 2 mg/L | MIC [1]: 2 mg/L | MIC [2]: 2 mg/L | Combination MIC [5]: 0.5 mg/L | Combination MIC [6]: 0.03 mg/L | Combination MIC [7]: 0.06 mg/L | FIC index [10]: 0.75 | Interaction [10]: Synergistic (Combinations that gave FIC indices less than 1 were designated “synergistic”) | FIC index [11]: 0.501 | Interaction [11]: Synergistic (Combinations that gave FIC indices less than 1 were designated “synergistic”) | FIC index [12]: 0.503 | Interaction [12]: Synergistic (Combinations that gave FIC indices less than 1 were designated “synergistic”) | FIC [15]: 0.25 | FIC [16]: 0.015 | FIC [17]: 0.03

C[C@@H]1[C@H](O)[C@@H](C)/C=C/C=C/C=C/C=C/C=C/C=C/C=C/[C@H](O[C@@H]2O[C@H](C)[C@@H](O)[C@H](N)[C@@H]2O)C[C@@H]2O[C@](O)(C[C@@H](O)C[C@@H](O)[C@H](O)CC[C@@H](O)C[C@@H](O)CC(=O)O[C@H]1C)C[C@H](O)[C@H]2C(=O)O [Amphotericin B]
Agent MIC [1]: 0.5 mg/L | Agent MIC [3]: 0.5 mg/L | Agent MIC (Table 5, lauric acid (C12) series): 0.5 mg/L | Agent MIC [4]: 0.5 mg/L | Combination MIC (agent's MIC in combination antifungal + lauric acid (partner: other agent of same combination no.)): 0.125 mg/L | Combination MIC [7]: 0.125 mg/L | Combination MIC [8]: 0.125 mg/L | Combination MIC [9]: 0.06 mg/L | FIC index [20]: 0.75 | Interaction [20]: Synergistic (Combinations that gave FIC indices less than 1 were designated “synergistic”) | FIC index [12]: 0.5 | Interaction [12]: Synergistic (Combinations that gave FIC indices less than 1 were designated “synergistic”) | FIC index [13]: 0.5 | Interaction [13]: Synergistic (Combinations that gave FIC indices less than 1 were designated “synergistic”) | FIC index [14]: 0.62 | Interaction [14]: Synergistic (Combinations that gave FIC indices less than 1 were designated “synergistic”) | FIC (combination antifungal + lauric acid): 0.25 | FIC [17]: 0.25 | FIC [18]: 0.25 | FIC [19]: 0.12

Zinc pyrithione
Agent MIC (Table 1, caprylic acid series): 3.125 mg/L | Agent MIC [1]: 3.125 mg/L | Agent MIC [2]: 3.125 mg/L | Combination MIC [5]: 0.195 mg/L | Combination MIC [6]: 0.195 mg/L | FIC index [10]: 0.19 | Interaction [10]: Synergistic (Combinations that gave FIC indices less than 1 were designated “synergistic”) | FIC index [11]: 0.3125 | Interaction [11]: Synergistic (Combinations that gave FIC indices less than 1 were designated “synergistic”) | FIC index [12]: 0.75 | Interaction [12]: Synergistic (Combinations that gave FIC indices less than 1 were designated “synergistic”) | FIC [15]: 0.06 | FIC [16]: 0.0625

Cc1cc(CC(C)CC(C)(C)C)n(O)c(=O)c1.NCCO (stereo not shown) [Piroctone olamine]
Agent MIC (Table 1, caprylic acid series): 4 mg/L | Agent MIC [1]: 2.5 mg/L | Agent MIC [2]: 4 mg/L | Combination MIC [5]: 2 mg/L | Combination MIC [6]: 2 mg/L | FIC index [10]: 0.75 | Interaction [10]: Synergistic (Combinations that gave FIC indices less than 1 were designated “synergistic”) | FIC index [11]: 0.562 | Interaction [11]: Synergistic (Combinations that gave FIC indices less than 1 were designated “synergistic”) | Interaction [12]: Synergistic (Combinations that gave FIC indices less than 1 were designated “synergistic”) | FIC [15]: 0.5 | FIC [16]: 0.5
